This is an account of results in ChEMBL document CHEMBL4017441, “Mitigating the inhibition of human bile salt export pump by drugs: opportunities provided by physicochemical property modulation, in silico modeling, and structural modification” (Drug Metab Dispos, 2012).

The target of this experiment is Bile salt export pump (Homo sapiens, UniProt O95342). It counts as ADME.

SMILES strings stand for the structures. Counter-ions that a name gives are not always drawn.

On to `Cc1n[nH]c(C)c1Cc1sc2c(c1C(=O)N1C[C@H](O)CO1)c(=O)n(C)c(=O)n2CC(C)C`, for which the IC50 is 248 µM.

For the compound `O=c1oc2ccccc2c(O)c1Cc1c(O)c2ccccc2oc1=O` [DICUMAROL], the 50% inhibitory concentration (IC50) came out at 39.9 µM. The value for `NS(=O)(=O)c1cc(Cl)c(Cl)c(S(N)(=O)=O)c1` [DICHLORPHENAMIDE] was > 919 µM. The value for `COc1cccc(N2C(N)=NC(N)=NC23CCCCC3)c1` was > 1000 µM. In the case of `C#C[C@]1(O)CC[C@H]2[C@@H]3CCc4cc(O)ccc4[C@H]3CC[C@@]21C` [ETHINYL ESTRADIOL] it was < 10 µM. `CC1COc2c(N3CCN(C)CC3)c(F)cc3c(=O)c(C(=O)O)cn1c23` (configuration not stated) [OFLOXACIN]: the IC50 was > 1000 µM. The value for `O=C(CCCN1CCC2(CC1)C(=O)NCN2c1ccccc1)c1ccc(F)cc1` [SPIPERONE] was < 10 µM.

As to `Cc1ccc(OC(C)(C)[C@H]2OC[C@@H](C/C=C\CCC(=O)O)[C@@H](c3cccnc3)O2)c(C#N)c1`, the IC50 is < 10 µM. For `C=C[C@H]1C[N@@]2CC[C@H]1C[C@H]2[C@H](O)c1ccnc2ccc(OC)cc12` [QUININE], the IC50 came to 98.8 µM. In the case of `CC(=O)NCCCCCCNC(C)=O` [HEXAMETHYLENEBISACETAMIDE] it was > 1000 µM; in that of `Oc1c(I)cc(I)c2cccnc12` [IODOQUINOL], > 1000 µM; in that of `CCC[S+]([O-])CCCN(CC)CC(O)COc1ccc(C#N)cc1` (configuration not stated) [ALMOKALANT], 55.7 µM. With `C[C@@H](COc1ccc(N2CCN(c3ccncc3)CC2)cc1)CC(=O)O`, the IC50 was > 1000 µM. The value for `CCN1C(=O)NC(c2ccccc2)C1=O` (configuration not stated) [ETHOTOIN] was > 792 µM; that for `CC[C@H]1OC(=O)[C@H](C)[C@H](O[C@H]2C[C@@](C)(OC)[C@@H](O)[C@H](C)O2)[C@@H](C)[C@@H](O[C@@H]2O[C@H](C)C[C@H](N(C)C)[C@H]2O)[C@@](C)(OC)C[C@@H](C)C(=O)[C@H](C)[C@H](O)[C@]1(C)O` was < 12.9 µM. In the case of `NS(=O)(=O)c1ccc(-c2ccc(OC[C@H](O)CCc3cccnc3)cc2)s1` it was > 1000 µM; in that of `Cc1onc(-c2c(Cl)cccc2Cl)c1C(=O)N[C@@H]1C(=O)N2[C@@H]1SC(C)(C)[C@@H]2C(=O)O` [DICLOXACILLIN], < 10 µM; in that of `O=C(NCC12CC3CC(CC(C3)C1)C2)c1cc(CN2CCNCC2)ccc1Cl`, 124 µM. The value for `COc1c(N2C[C@@H]3CCCN[C@@H]3C2)c(F)cc2c(=O)c(C(=O)O)cn(C3CC3)c12` [MOXIFLOXACIN] was > 1000 µM; that for `O=C(NCCc1ccccc1Cl)c1cc(-n2ncc(=O)[nH]c2=O)ccc1Cl` was 34.4 µM. As for `C[C@H]1C[C@H]2[C@@H]3CCC4=CC(=O)C=C[C@]4(C)[C@@]3(Cl)[C@@H](O)C[C@]2(C)[C@@]1(O)C(=O)CO` [BECLOMETHASONE], the IC50 worked out at 23.7 µM. Take `CC(CNC1CCCCC1)OC(=O)c1ccccc1` (configuration not stated) [HEXYLCAINE HYDROCHLORIDE]: the IC50 turned out to be 506 µM. As for `CC(O)(P(=O)(O)O)P(=O)(O)O` [ETIDRONIC ACID], the IC50 is > 1000 µM. For the compound `CNC[C@H](O)Cc1ccc(Cl)c(C(=O)NCC23CC4CC(CC(C4)C2)C3)c1`, the IC50 stood at 133 µM.

As to `Cc1ccc2c(c1)c(-c1ccnc3c(C)cccc13)c(C)n2CC(=O)O`, the IC50 was < 10 µM.

Regarding `CCc1cc(C(N)=S)ccn1` [ETHIONAMIDE], the IC50 was > 1000 µM. In the case of `C[n+]1ccccc1/C=N/O` [PRALIDOXIME] it was > 1000 µM; in that of `CCC(=O)NCC[C@@H]1CCc2ccc3c(c21)CCO3` [RAMELTEON], 85 to 85.4 µM. With `CCCCOc1ccc(C(=O)CCN2CCCCC2)cc1` [DYCLONINE], the IC50 was found to be 275 µM. The value for `COc1ccc2c(c1OC)C(=O)OC2C1c2cc3c(cc2CCN1C)OCO3` (configuration not stated) was 65.6 µM; that for `Cc1cccc(N(C)C(=S)Oc2ccc3ccccc3c2)c1` [TOLNAFTATE] was < 10.3 µM; that for `O=C(O)c1cc2cc(O)ccc2n1Cc1ccc(Cl)c(Cl)c1` was 49.8 µM. Turning to `C=CC1CN2CCC1CC2C(O)c1ccnc2ccccc12` (configuration not stated), the IC50 is > 1000 µM. The value for `C#Cc1cccc(Nc2ncnc3cc(OCCOC)c(OCCOC)cc23)c1` [ERLOTINIB] was < 10 µM; that for `CC(C)(CO)[C@@H](O)C(=O)NCCC(=O)O` [PANTOTHENIC ACID] was > 1000 µM. As for `CN1[C@@H]2C[C@@H](OC(=O)[C@H](CO)c3ccccc3)C[C@H]1[C@@H]1O[C@@H]12` [SCOPOLAMINE], the IC50 was > 1000 µM. Take `COc1ccc(C(CN(C)C)C2(O)CCCCC2)cc1` (configuration not stated) [VENLAFAXINE]: the IC50 is > 1000 µM. In the case of `O=CN(O)C(CCc1cccnc1)CS(=O)(=O)N1CCC(Oc2ccc(Cl)cn2)CC1` (configuration not stated) it was < 10 µM.

Turning to `CN(C)CCC=C1c2ccccc2C=Cc2ccccc21` [CYCLOBENZAPRINE], the IC50 is 107 µM. With `O=CN(O)C(CCc1cccnc1)CS(=O)(=O)N1CCN(c2ccc(Cl)cn2)CC1` (configuration not stated), the IC50 was < 10 µM. The value for `Cc1cc2c(s1)Nc1ccccc1N=C2N1CCN(C)CC1` [OLANZAPINE] was […]; that for `Clc1ccc(C(c2ccccc2Cl)C(Cl)Cl)cc1` (configuration not stated) [MITOTANE] was < 10 µM. The value for `CC(C)(C)c1ccc(C(O)CCCN2CCC(C(O)(c3ccccc3)c3ccccc3)CC2)cc1` (configuration not stated) [TERFENADINE] was < 17.5 µM; that for `CC1=NS(=O)(=O)c2cc(Cl)ccc2N1` [DIAZOXIDE] was > 1000 µM; that for `NC(=O)c1cc([N+](=O)[O-])cc([N+](=O)[O-])c1` [NITROMIDE] was 185 µM.

With `CN(C)C(=O)Oc1cccc([N+](C)(C)C)c1` [NEOSTIGMINE], the IC50 was > 1000 µM. The value for `Cc1cc2cc(C(=O)NC3Cc4ccccc4N(C[C@@H](O)CO)C3=O)[nH]c2s1` (some centres not stated) was < 11 µM. In the case of `C#C[C@]1(O)CC[C@H]2[C@@H]3CCC4=Cc5oncc5C[C@]4(C)[C@H]3CC[C@@]21C` [DANAZOL], the IC50 is < 10 µM. In the case of `CN(C)c1ncnc2c1ncn2C1OC(CO)C(N)C1O` (configuration not stated) it was > 1000 µM. The value for `CC(CCc1ccccc1)NCC(O)c1ccc(O)c(C(N)=O)c1` (configuration not stated) [LABETALOL] was 649 µM; that for `O=C(CCCN1CC=C(n2c(=O)[nH]c3ccccc32)CC1)c1ccc(F)cc1` [DROPERIDOL] was < 10 µM. In the case of `CCC1C(=O)OCC1Cc1cncn1C` (configuration not stated) it was > 1000 µM.

On to `N[C@@H]1C[C@H]1c1ccccc1.N[C@H]1C[C@@H]1c1ccccc1` [TRANYLCYPROMINE], for which the IC50 is > 1000 µM. The value for `COc1cc(C(=O)N2CCOCC2)cc(OC)c1OC` [TRIMETOZINE] was > 1000 µM. `COc1cc2c(Oc3ccc4[nH]c(C)cc4c3F)ncnc2cc1OCCCN1CCCCC1`: the IC50 is 22.7 µM.

With `CCCc1c2oc(C(=O)O)cc(=O)c2cc2c(=O)cc(C(=O)O)oc12` [PROBICROMIL], the IC50 was > 1000 µM. In the case of `O=C(O)Cc1ccccc1Nc1c(Cl)cccc1Cl` [DICLOFENAC], the IC50 is 65 µM. Take `CN(C)C(=O)Oc1ccc[n+](C)c1` [PYRIDOSTIGMINE BROMIDE]: the IC50 is > 1000 µM. The value for `CCCOc1ccc2nc(NC(=O)OC)[nH]c2c1` [OXIBENDAZOLE] was > 1000 µM. In the case of `OC[C@@H](O)[C@@H](O[C@@H]1O[C@H](CO)[C@H](O)[C@H](O)[C@H]1O)[C@H](O)[C@@H](O)CO` [LACTITOL] it was > 1000 µM. In the case of `CC(=O)NS(=O)(=O)c1ccc(NC(=O)c2ccccc2C(=O)O)cc1` it was > 1000 µM; in that of `CC(=O)Oc1ccc2c(c1)cc(C(=O)O)n2Cc1ccc(Cl)c(Cl)c1`, 55.2 µM; in that of `C[C@]12CC[C@@H]3c4ccc(O)cc4CC[C@H]3[C@@H]1C[C@@H](O)[C@@H]2O` [ESTRIOL], > 1000 µM. Regarding `FC(F)(F)c1cccc(C2=CCN(CCc3ccc4ccccc4c3)CC2)c1` [XALIPRODEN], the IC50 was 117 µM. The value for `NCCc1c[nH]cn1` [HISTAMINE] was > 1000 µM. In the case of `O=S(=O)(CCOCCc1ccccc1)NCCNCCc1ccc(O)c2nc(O)sc12` it was 35.7 µM; in that of `CS(=O)(=O)c1ccc(C2=C(c3ccccc3)C(=O)OC2)cc1` [ROFECOXIB], 95.4 µM; in that of `COc1cc2c(cc1OC)C(=O)C(CC1CCN(Cc3ccccc3)CC1)C2` (configuration not stated) [DONEPEZIL], 146 µM.

For the compound `CC1=C(C(=O)O)N2C(=O)[C@@H](NC(=O)C(N)C3=CCC=CC3)C2SC1` (some centres not stated), the IC50 was > 1000 µM.

For the compound `CN[C@]1(C)[C@H]2CC[C@H](C2)C1(C)C`, the IC50 is > 1000 µM.

In the case of `CCOC(=O)c1cncn1[C@H](C)c1ccccc1` [ETOMIDATE], the IC50 came out at 61.6 µM.

With `COc1ccc(-n2[nH]c(=O)c3[nH]c4cc(Cl)ccc4c(=O)c3c2=O)c(C)c1`, the IC50 worked out at 490 µM. The value for `CC(C)(C)C(=O)Oc1ccc(S(=O)(=O)Nc2ccccc2C(=O)NCC(=O)O)cc1` was 142 µM; that for `CCCc1ncc(-c2ccnc(Nc3ccc(S(=O)(=O)NCCOC)cc3)n2)n1CC` was < 10 µM; that for `CNC(=O)Oc1ccc2c(c1)C1(C)CCN(C)C1N2C` (configuration not stated) was > 1000 µM. The value for `CN(C)CCCN1c2ccccc2Sc2ccc(C(F)(F)F)cc21` [TRIFLUPROMAZINE] was 39 µM; that for `Cc1ccc(C(=O)N2CC3CNCC(C2)O3)cc1NC(=O)CC12CC3CC(CC(C3)C1)C2` was 59.5 µM. On to `Clc1ccc(Nc2nnc(Cc3ccncc3)c3ccccc23)cc1` [VATALANIB], for which the IC50 is < 10 µM.

For `N[C@@H](CC(=O)N1CCn2c(nnc2C(F)(F)F)C1)Cc1cc(F)c(F)cc1F` [SITAGLIPTIN], the IC50 worked out at 148 µM. The value for `CN(C)CCOC(c1ccc(Cl)cc1)c1ccccn1` (configuration not stated) [CARBINOXAMINE] was > 1000 µM; that for `COc1c(C(=O)O)n(Cc2ccc(Cl)c(Cl)c2)c2ccc(O)cc12` was 39.6 µM; that for `CCCc1c2nc(C(=O)O)cc(Cl)c2cc2c(=O)cc(C(=O)O)oc12` was > 892 µM. The value for `CNCCCN1c2ccccc2CCc2ccccc21` [DESIPRAMINE] was 150 µM; that for `CCN(CC)C(=S)S` [DITIOCARB] was 69.3 µM; that for `Cc1cc2c(OCC(O)CNC(C)C)cccc2[nH]1` (configuration not stated) [MEPINDOLOL] was 35.9 to 36 µM.

As for `CC(C)(CO)[C@@H](O)C(=O)NCCCO` [DEXPANTHENOL], the IC50 was > 1000 µM.

For the compound `CCCCN(CCCC)CCCOC(=O)c1ccc(N)cc1` [BUTACAINE], the IC50 amounted to 488 µM.

As usually defined, the IC50 is the concentration at which inhibition is half-maximal.
